Tested on: pAMPK, pACC and pP38
Experiment: AMPK, ACC and p38 phosphorylation by western blot in C2C12 myotubes
Type: cell-based, mouse
Conditions: 10 nM
Protocol: A. ULMA induces rapid AMPK and p38MAPK signaling. C2C12 myotubes in 10 cm dishes were treated with vehicle (0.1% vol/vol DMSO; 0 min) or 10 nM ULMA for different time points ranging from 1 min to 24 h (final concentration of DMSO in all wells were 0.1% vol/vol). Following treatment, the cells were washed with ice-cold PBS and then lysed. The total protein was estimated by Bradford assay and equal amount of protein (50 μg) was resolved by denaturing polyacrylamide gel electrophoresis and western blotted to determine pAMPK, pACC and pP38 level. Total AMPK, total ACC or total P38 levels were used as loading controls. Data is representative of three independent experiments displaying identical pattern (right panel depicts densitometry from 3 experiments).
B. AdipoR1 overexpression enhances ULMA effect on AMPK and p38 MAPK signaling. C2C12 myoblasts growing in T75 flasks were trypsinized and transfected with […] of either empty vector (pcDNA3) or AdipoR1 expression plasmid using lipofectamine LTX transfection reagent and then the cells were plated in 10 cm dishes. 24 h following transfection, cells were incubated in differentiation medium and maintained in the same medium for 96 h when the cells differentiated fully into myotubes. These cells were then treated with vehicle (DMSO) or ULMA (10 nM) for 10 mins. The cells were then lysed and western blotted for the indicated proteins. Data is representative of three independent experiments displaying identical pattern.
C. Knockdown of AdipoR1 abrogates ULMA effect on AMPK and p38 signalling. C2C12 myotubes in 6 well plates were transfected with 100 nM non-silencing control or AdipoR1 siRNAs using DharmaFECT 1 transfection reagent (Thermo). 72 h following transfection, cells were treated with vehicle (DMSO) or ULMA (10 nM) for 10 min and were western blotted to evaluate pAMPK, pACC, p38, AdipoR1, and R2 status. Total AMPK, ACC, p38 and beta-actin were used as loading controls.
C2C12 myotubes in 10 cm dishes were treated with vehicle (0.1% DMSO; 0 min) or 10 nM ULMA for different time points ranging from 1 min to 24 hour. Following treatment, the cells were washed with ice-cold PBS and then lysed in lysis buffer [1M NaCl, 50 mM HEPES and 0.1% triton X 100 containing 1× protease inhibitor cocktail and 1× phosphates inhibitor cocktail (Sigma)]. The total protein was estimated by Bradford assay and equal amount of protein (50 μg) was resolved by denaturing polyacrylamide gel electrophoresis and western blotted for determination of pAMPK, pACC and pP38 levels (in all the cases the primary antibodies were used in 1:1000 dilution and all the antibodies were from Cell signaling technology). Total AMPK, ACC and p38 expressions were also detected and used as loading controls (all the antibodies were from Cell signaling technology and were used in 1:1000 dilution). […] To evaluate if AdipoRs are indeed involved in the regulation of these pathways by ULMA, C2C12 myoblasts growing in T75 flasks were trypsinized and transfected with 10 μg of either empty vector (pcDNA3) or AdipoR1 expression plasmid using lipofectamine LTX transfection reagent and then the cells were plated in 10 cm dishes. 24 hours following transfection, cells were incubated in differentiation medium and were maintained in the same medium for 96 hours when the cells fully differentiated into myotubes. These cells were then treated with vehicle (DMSO) or ULMA (10 nM) for 10 min. The cells were then lysed (as mentioned above) and western blotted. […] This was further validated in knockdown experiments where C2C12 myotubes in 6 well plates were transfected with 100 nM non-silencing control or AdipoR1 siRNAs using DharmaFECT 1 transfection reagent (Thermo). 72 hours following transfection, cells were treated with vehicle (DMSO) or ULMA (10 nM) for 10 min and were western blotted to evaluate pAMPK, pACC, pP38, AdipoR1, and R2 status.

Compound: O=C1c2c(cc(O)c([C@@H]3O[C@H](CO)[C@@H](O)[C@H](O)[C@H]3O)c2O)O[C@@H](c2ccc(O)c(O)c2)[C@@H]1O [ULMA, (2S,3S)-(+)-3′,4′,5,7-tetrahydroxydihydroflavonol-6-C-β-D-glucopyranoside]
- phosphorylation of ACC (1 min to 24 hour): rapid and robust phosphorylation
- phosphorylation of AMPK (1 min to 24 hour): rapid and robust phosphorylation
- phosphorylation of p38 (1 min to 24 hour): phosphorylated
- response on AMPK, ACC and p38 phosphorylation with siAdipoR1 (10 min, 100 nM AdipoR1 siRNA): completely obliterated ULMA response
- effect on AMPK and p38 MAPK signaling with AdipoR1 overexpression (10 min, AdipoR1 expression plasmid vs empty vector): robust increase in effect of ULMA
- AMPK, ACC and p38 phosphorylation with control siRNA (siC) (10 min, non-silencing control siRNA): phosphorylated AMPK, ACC and P38
